Assay results reported in US20160108027A1, “SUBSTITUTED BENZOXAZOLES” (BAYER PHARMA AKTIENGESELLSCHAFT, priority 2013, published 2016).

Key:
[1] = target: T1, thrombin (Homo sapiens, UniProt P00734); assay: Determination of the thrombin-inhibitory activity in plasma samples (ecarin-activated); format: biochemical; details: citrate plasma, ecarin activation, fluorogenic thrombin substrate; in some cases means of individual determinations
Experimental: To determine the inhibition of thrombin in plasma samples, plasma […] is activated by ecarin. Thrombin activity and/or its inhibition by potential inhibitors is/are then measured fluorenscently by addition of a substrate.
The substances to be tested are dissolved in various concentrations in dimethyl sulphoxide and diluted with water. In white 96-well flat-bottomed plates, 20 μl of substance dilution are mixed with 20 μl of ecarin solution (ecarin reagent, from Sigma E-0504, final concentration 20 mU per reaction) in Ca buffer (200 mM Hepes+560 mM sodium chloride+10 mM calcium chloride+0.4% PEG) or with 20 μl of Ca buffer (as unstimulated control). Furthermore, 20 μl of fluorogenic thrombin substrate (from Bachem 1-1120, final concentration 50 μmol/1) and 20 μl of citrate plasma (from Octapharma) are added, and the mixture is homogenized well. The plate is measured in a SpectraFluorplus Reader using a 360 nm excitation filter and a 465 nm emission filter every minute over 20 minutes. […] Representative activity data from this test are given in Table 2 below (in some cases as means of individual determinations): […]

[2] = target: T1, thrombin; assay: Measurement of the thrombin inhibition in buffer; format: biochemical; details: human thrombin 0.06 nmol/l in Tris buffer pH 7.4, 22° C., substrate Boc-Asp(OBzl)-Pro-Arg-AMC; in some cases means of individual determinations
Experimental: To determine the thrombin inhibition of the substances listed above, a biochemical test system is constructed in which the conversion of a thrombin substrate is used for determining the enzymatic activity of human thrombin. Here, thrombin cleaves aminomethylcoumarin, which is measured fluorescently, from the peptic substrate. The determinations are carried out in microtitre plates.
Substances to be tested are dissolved in various concentrations in dimethyl sulphoxide and incubated for 15 min with human thrombin (0.06 nmol/l dissolved in 50 mmol/l of Tris buffer [C,C,C-tris(hydroxymethyl)aminomethane], 100 mmol/l of sodium chloride, 0.1% BSA [bovine serum albumin], pH 7.4) at 22° C. The substrate (5 μmol/l Boc-Asp(OBzl)-Pro-Arg-AMC from Bachem) is then added. After 30 min of incubation, the sample is excited at a wavelength of 360 nm and the emission is measured at 460 nm. The measured emissions of the test mixtures with test substance are compared to the control mixtures without test substance (only dimethyl sulphoxide instead of test substance in dimethyl sulphoxide) and IC50 values are calculated from the concentration/activity relationships. Representative activity data from this test are given in Table 1 below (in some cases as means of individual determinations): […]

Row | IC50 [1] [µM] | IC50 [2] [µM] | SMILES
1 | 0.048 | 0.032 | COc1cc(C(=O)N2CC3CCN3C(=O)C2C)cc2nc(NCc3cc(Cl)ccn3)oc12 (single isomer, unassigned) [Example 75, 4-[(2-{[(4-Chloropyridin-2-yl)methyl]amino}-7-methoxy-1,3-benzoxazol-5-yl)carbonyl]-3-methyl-1,4-diazabicyclo[4.2.0]octan-2-one]
2 | 0.019 | 0.013 | CCC1C(=O)NC2(CC2)CN1C(=O)c1cc(OC)c2oc(NCc3cc(Cl)ccn3)nc2c1 (racemic) [Example 78, 7-[(2-{[(4-Chloropyridin-2-yl)methyl]amino}-7-methoxy-1,3-benzoxazol-5-yl)carbonyl]-6-ethyl-4,7-diazaspiro[2.5]octan-5-one]
3 | 0.025 | 0.015 | CCO[C@@H]1CC(CO)N(C(=O)c2cc(OC)c3oc(NCc4cc(Cl)ccn4)nc3c2)C1 (stereo partly drawn) [Example 1, (2-{[(4-Chloropyridin-2-yl)methyl]amino}-7-methoxy-1,3-benzoxazol-5-yl)[(4R)-4-ethoxy-2-(hydroxymethyl)pyrrolidin-1-yl]methanone]
4 | 0.04 | 0.011 | COc1cc(C(=O)N2CC(C)(C)OCC2(C)CO)cc2nc(NCc3cc(Cl)ccn3)oc12 (single isomer, unassigned) [Example 39, (2-{[(4-Chloropyridin-2-yl)methyl]amino}-7-methoxy-1,3-benzoxazol-5-yl) [5-(hydroxymethyl)-2,2,5-trimethylmorpholin-4-yl]methanone]
5 | 0.028 | 0.018 | COc1cc(C(=O)N2CC(C)(C)OCC2C2(O)CC2)cc2nc(NCc3cc(Cl)ccn3)oc12 (single isomer, unassigned) [Example 94, (2-{[(4-Chloropyridin-2-yl)methyl]amino}-7-methoxy-1,3-benzoxazol-5-yl) [5-(1-hydroxycyclopropyl)-2,2-dimethylmorpholin-4-yl]methanone]
6 | 0.074 | 0.038 | COc1cc(C(=O)N2CC(C)OCC2CCO)cc2nc(NCc3cc(Cl)ccn3)oc12 (racemic) [Example 70, (2-{[(4-Chloropyridin-2-yl)methyl]amino}-7-methoxy-1,3-benzoxazol-5-yl) [5-(2-hydroxyethyl)-2-methylmorpholin-4-yl]methanone]
7 | 0.056 | 0.032 | COCC1C(=O)N2CCC2CN1C(=O)c1cc(OC)c2oc(NCc3cc(Cl)ccn3)nc2c1 (single isomer, unassigned) [Example 74, 4-[(2-{[(4-Chloropyridin-2-yl)methyl]amino}-7-methoxy-1,3-benzoxazol-5-yl)carbonyl]-3-(methoxymethyl)-1,4-diazabicyclo[4.2.0]octan-2-one]
8 | 0.0068 | 0.001 | COc1cc(C(=O)N2CC(C)(CC(C)O)OC[C@H]2C)cc2nc(NCc3cc(Cl)ccn3)oc12 (single isomer, unassigned) [Example 25]
9 | 0.017 | 0.008 | COc1cc(C(=O)N2CC(C)OCC2C2CC(O)C2)cc2nc(NCc3cc(Cl)ccn3)oc12 (single isomer, unassigned) [Example 51, (2-{[(4-Chloropyridin-2-yl)methyl]amino}-7-methoxy-1,3-benzoxazol-5-yl) [5-(3-hydroxycyclobutyl)-2-methylmorpholin-4-yl]methanone]
10 | 0.043 | 0.041 | COc1cc(C(=O)N2CC(C)(C)OCC2C(C)O)cc2nc(NCc3cc(Cl)ccn3)oc12 (single isomer, unassigned) [Example 96, (2-{[(4-Chloropyridin-2-yl)methyl]amino}-7-methoxy-1,3-benzoxazol-5-yl) [5-(1-hydroxyethyl)-2,2-dimethylmorpholin-4-yl]methanone]
11 | 0.031 | 0.021 | COc1cc(C(=O)N2C[C@H](OC3CC3)C[C@H]2CO)cc2nc(NC(C)c3cc(Cl)ccn3)oc12 (stereo partly drawn) [Example 13, (2-{[1-(4-Chloropyridin-2-yl)ethyl]amino}-7-methoxy-1,3-benzoxazol-5-yl)[(2S,4R)-4-(cyclopropyloxy)-2-(hydroxymethyl)pyrrolidin-1-yl]methanone]
12 | 0.07 | 0.037 | COc1cc(C(=O)N2C[C@H](OCC(F)F)CC2CO)cc2nc(NCc3cc(Cl)ccn3)oc12 (single isomer, unassigned) [Example 7]
13 | 0.027 | 0.017 | COc1cc(C(=O)N2CC(C)(C)OCC2(C)C(C)O)cc2nc(NCc3cc(Cl)ccn3)oc12 (stereo not shown) [Example 69, (2-{[(4-Chloropyridin-2-yl)methyl]amino}-7-methoxy-1,3-benzoxazol-5-yl) [5-(1-hydroxyethyl)-2,2,5-trimethylmorpholin-4-yl]methanone]
14 | 0.066 | 0.036 | COc1cc(C(=O)N2CC(C)OCC2(C)CO)cc2nc(NCc3cc(Cl)ccn3)oc12 (single isomer, unassigned) [Example 20, (2-{[(4-Chloropyridin-2-yl)methyl]amino}-7-methoxy-1,3-benzoxazol-5-yl) [5-(hydroxymethyl)-2,5-dimethylmorpholin-4-yl]methanone]
15 | 0.148 | 0.096 | COc1cc(C(=O)N2CC(C)NC(=O)C2CC#N)cc2nc(NCc3cc(Cl)ccn3)oc12 (single isomer, unassigned) [Example 92, {1-[(2-{[(4-Chloropyridin-2-yl)methyl]amino}-7-methoxy-1,3-benzoxazol-5-yl)carbonyl]-5-methyl-3-oxopiperazin-2-yl}acetonitrile]
16 | 0.071 | 0.005 | COc1cc(C(=O)N2CC(C)(CC(C)O)OCC2(C)C)cc2nc(NCc3cc(Cl)ccn3)oc12 (single isomer, unassigned) [Example 35, (2-{[(4-Chloropyridin-2-yl)methyl]amino}-7-methoxy-1,3-benzoxazol-5-yl) [2-(2-hydroxypropyl)-2,5,5-trimethylmorpholin-4-yl]methanone]
17 | 0.057 | 0.025 | COc1cc(C(=O)N2CC(C)OCC2CC(C)(C)O)cc2nc(NCc3cc(Cl)ccn3)oc12 (single isomer, unassigned) [Example 56, (2-{[(4-Chloropyridin-2-yl)methyl]amino}-7-methoxy-1,3-benzoxazol-5-yl) [5-(2-hydroxy-2-methylpropyl)-2-methylmorpholin-4-yl]methanone]
18 | 0.024 | 0.0052 | COc1cc(C(=O)N2CC(C)(CCO)OCC2COC(F)F)cc2nc(NCc3cc(Cl)ccn3)oc12 (single isomer, unassigned) [Example 60, (2-{[(4-Chloropyridin-2-yl)methyl]amino}-7-methoxy-1,3-benzoxazol-5-yl){5-[(difluoromethoxy)methyl]-2-(2-hydroxyethyl)-2-methylmorpholin-4-yl}methanone]
19 | 0.023 | 0.014 | COc1cc(C(=O)N2CC3(CC3)NC(=O)C2C)cc2nc(NCc3cc(Cl)ccn3)oc12 (single isomer, unassigned) [Example 77, 7-[(2-{[(4-Chloropyridin-2-yl)methyl]amino}-7-methoxy-1,3-benzoxazol-5-yl)carbonyl]-6-methyl-4,7-diazaspiro[2.5]octan-5-one]
20 | 0.016 | 0.011 | COc1cc(C(=O)N2CC(C)OCC2C2CC(O)C2)cc2nc(NCc3cc(Cl)ccn3)oc12 (single isomer, unassigned) [Example 48, (2-{[(4-Chloropyridin-2-yl)methyl]amino}-7-methoxy-1,3-benzoxazol-5-yl) [5-(3-hydroxycyclobutyl)-2-methylmorpholin-4-yl]methanone]
